Here are results for 4 molecules from patent US20200390899A1, “AMINOBENZAZEPINE COMPOUNDS, IMMUNOCONJUGATES, AND USES THEREOF” (BOLT BIOTHERAPEUTICS, INC., priority 2019, published 2020).

In test [1] the target is T1, human TLR7 (Homo sapiens, UniProt Q9NYK1).
T1 construct: host or cells: HEK293 reporter cells
T1 sequence (Q9NYK1 27-1049): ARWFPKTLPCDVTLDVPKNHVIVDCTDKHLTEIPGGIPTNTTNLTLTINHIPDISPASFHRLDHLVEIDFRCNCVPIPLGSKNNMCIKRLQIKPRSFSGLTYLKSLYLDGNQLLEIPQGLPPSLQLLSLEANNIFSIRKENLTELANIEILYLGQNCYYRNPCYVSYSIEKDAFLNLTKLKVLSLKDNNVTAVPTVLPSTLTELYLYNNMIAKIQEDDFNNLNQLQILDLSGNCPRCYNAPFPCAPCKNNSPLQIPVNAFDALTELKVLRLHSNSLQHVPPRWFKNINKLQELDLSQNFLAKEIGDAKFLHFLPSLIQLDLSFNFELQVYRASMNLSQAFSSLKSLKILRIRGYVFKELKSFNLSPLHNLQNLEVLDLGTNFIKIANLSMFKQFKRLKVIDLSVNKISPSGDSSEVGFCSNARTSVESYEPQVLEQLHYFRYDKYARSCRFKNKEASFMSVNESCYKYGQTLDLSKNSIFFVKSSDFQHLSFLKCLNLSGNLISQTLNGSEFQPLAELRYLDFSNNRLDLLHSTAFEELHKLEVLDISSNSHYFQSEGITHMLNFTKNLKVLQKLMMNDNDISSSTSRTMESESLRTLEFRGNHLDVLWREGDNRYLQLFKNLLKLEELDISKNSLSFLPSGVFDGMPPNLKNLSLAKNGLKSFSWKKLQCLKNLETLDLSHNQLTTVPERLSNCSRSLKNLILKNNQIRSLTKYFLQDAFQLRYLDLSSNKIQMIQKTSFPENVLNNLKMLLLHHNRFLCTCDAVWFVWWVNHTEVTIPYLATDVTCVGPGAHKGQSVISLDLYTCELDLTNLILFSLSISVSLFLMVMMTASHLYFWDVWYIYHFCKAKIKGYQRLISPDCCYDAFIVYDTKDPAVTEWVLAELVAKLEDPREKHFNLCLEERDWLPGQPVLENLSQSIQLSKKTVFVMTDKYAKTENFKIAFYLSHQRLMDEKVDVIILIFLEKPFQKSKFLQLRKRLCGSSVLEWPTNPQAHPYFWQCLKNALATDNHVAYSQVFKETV
Briefly: HEK293 NFKB reporter assay, human TLR7. It counts as cell-based. As to conditions: HEK293 reporter cells expressing human TLR7, read-out: HEK293 hTLR7 EC50.

In test [2] the target is T2, human TLR8 (Homo sapiens, UniProt Q9NR97).
T2 construct: host or cells: HEK293 reporter cells
T2 sequence (Q9NR97 27-1041): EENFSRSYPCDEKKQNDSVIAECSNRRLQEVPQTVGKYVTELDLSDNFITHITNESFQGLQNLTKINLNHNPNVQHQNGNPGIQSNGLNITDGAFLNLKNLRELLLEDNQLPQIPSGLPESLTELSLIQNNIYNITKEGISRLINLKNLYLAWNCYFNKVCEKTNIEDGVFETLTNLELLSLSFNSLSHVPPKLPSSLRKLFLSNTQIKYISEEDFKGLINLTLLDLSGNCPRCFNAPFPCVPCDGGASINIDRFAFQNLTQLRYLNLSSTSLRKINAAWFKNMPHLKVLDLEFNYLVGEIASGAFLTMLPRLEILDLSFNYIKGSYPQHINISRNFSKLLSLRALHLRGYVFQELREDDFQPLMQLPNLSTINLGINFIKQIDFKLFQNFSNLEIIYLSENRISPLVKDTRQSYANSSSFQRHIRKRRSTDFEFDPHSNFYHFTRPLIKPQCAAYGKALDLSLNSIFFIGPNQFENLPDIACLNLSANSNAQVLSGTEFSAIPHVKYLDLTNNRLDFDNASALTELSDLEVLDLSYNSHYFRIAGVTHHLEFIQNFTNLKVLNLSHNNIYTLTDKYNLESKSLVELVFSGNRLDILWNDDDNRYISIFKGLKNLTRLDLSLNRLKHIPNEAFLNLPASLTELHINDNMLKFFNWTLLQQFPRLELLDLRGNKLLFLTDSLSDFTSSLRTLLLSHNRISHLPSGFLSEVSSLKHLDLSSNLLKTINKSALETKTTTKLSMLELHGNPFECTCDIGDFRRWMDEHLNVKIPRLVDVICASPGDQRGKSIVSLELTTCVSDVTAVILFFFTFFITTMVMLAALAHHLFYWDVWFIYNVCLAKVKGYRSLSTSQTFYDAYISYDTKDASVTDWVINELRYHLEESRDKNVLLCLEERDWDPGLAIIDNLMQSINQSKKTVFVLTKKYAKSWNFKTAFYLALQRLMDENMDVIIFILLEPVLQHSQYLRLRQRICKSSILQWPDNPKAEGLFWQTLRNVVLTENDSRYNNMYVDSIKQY
Briefly: HEK293 NFKB reporter assay, human TLR8. As to conditions: HEK293 reporter cells expressing human TLR8, read-out: HEK293 hTLR8 EC50. It counts as cell-based.

Read-outs that look alike come from different tables or passages of the source.

With `CCCN(Cc1ccc(CN)cc1)C(=O)C1=Cc2ccc(-c3cccc(S(=O)(=O)N4CC(CO)C4)c3)cc2N=C(N)C1` [Bz-27, 2-Amino-N-(4-(aminomethyl)benzyl)-8-(3-((3-(hydroxymethyl)azetidin-1-yl)sulfonyl)phenyl)-N-propyl-3H-benzo[b]azepine-4-carboxamide], the EC50 in test [1] (Table 1b) was over 9000 nM; in test [2] (Table 1b), 138 nM.
In the case of `CCCN(CCC)C(=O)C1=Cc2ccc(-c3cc(C(F)(F)F)cc(S(=O)(=O)N4CC(CN(C)C)C4)c3)cc2N=C(N)C1` [Bz-39], the EC50 is 42 nM in test [1] (Table 1c) and 728 nM in test [2] (Table 1c).
Turning to `CCCN(CCCNC(=O)Nc1cccc(C#N)c1)C(=O)C1=Cc2ccc(-c3cccc(S(=O)(=O)N4CC(CO)C4)c3)cc2N=C(N)C1` [Bz-12, 2-amino-N-[3-[(3-cyanophenyl)carbamoylamino]propyl]-8-[3-[3-(hydroxymethyl)azetidin-1-yl]sulfonylphenyl]-N-propyl-3H-1-benzazepine-4-carboxamide], the EC50 in test [1] (Table 1a) came to 2490 nM; in test [2] (Table 1a) it was 2380 nM.
Take `CCCN(CCC)C(=O)C1=Cc2c(CCCCN)cc(-c3cccc(S(=O)(=O)N4CC(CO)C4)c3)cc2N=C(N)C1` [Bz-14, 2-Amino-6-(4-aminobutyl)-8-(3-((3-(hydroxymethyl)azetidin-1-yl)sulfonyl)phenyl)-N,N-dipropyl-3H-benzo[b]azepine-4-carboxamide]: the figures for the EC50 in test [1] (Table 1a) and in test [2] (Table 1a) were over 9000 nM and 1700 nM, respectively.
